# Values quoted from earlier work in patent US20160022604A1, “DIRECTLY COMPRESSED OSPEMIFENE COMPOSITIONS” (CADILA HEALTHCARE LIMITED, priority 2014, published 2016).
# How the values were obtained:
# [1] = classical hormonal tests
# [2] = experimental models and human volunteers
structure (smiles),measurement,setting,value
"OCCOc1ccc(/C(=C(/CCCl)c2ccccc2)c2ccccc2)cc1 [Ospemifene, 2-[4-(4-chloro-1,2-diphenylbut-1-enyl)phenoxy]ethanol]",estrogenic and antiestrogenic effects,[1],relatively weak
same,total and LDL cholesterol levels,[2],decreases
